The values that follow are results of earlier work, collected in PubChem BioAssay AID1259409 (Chemical Carcinogenesis Research Information System (CCRIS), 2018).

Structures are written as SMILES.

This data set deals with rodent chemically induced tumor inhibition, incidence and multiplicity. The experiment in a line: CCRIS tumor inhibitor studies. The conditions noted are these: Dose [Inhibitor]: 0, Route [Inhibitor]: ORAL.

Regarding `Oc1cccc(O)c1`, the “tumour outcome (control, treated, inhibition, significance)” value reads like this: (Carcinogen: N-BIS(2-HYDROXYPROPYL)NITROSAMINE, 53609-64-6, 0.8% IN DIET FOR 30 WK BEGINNING POST CARCINOGEN TREATMENT (STUDY DURATION: 32 WK), Species: RAT, Strain/Sex: F344/MALE, Target Tissue: Type of Lesion: LUNG: ADENOMA, Dose [Carcinogen]: 0.1% IN DRINKING WATER FOR 2 WK, Promoter: NONE USED) 100%, 90%, 10%, not calculated; (Carcinogen: N-BIS(2-HYDROXYPROPYL)NITROSAMINE, 53609-64-6, 0.8% IN DIET FOR 30 WK BEGINNING POST CARCINOGEN TREATMENT (STUDY DURATION: 32 WK), Species: RAT, Strain/Sex: F344/MALE, Target Tissue: Type of Lesion: THYROID: ADENOMA, Dose [Carcinogen]: 0.1% IN DRINKING WATER FOR 2 WK, Promoter: NONE USED) 20%, 30%, -50%, not calculated; (Carcinogen: N-BIS(2-HYDROXYPROPYL)NITROSAMINE, 53609-64-6, 0.8% IN DIET FOR 30 WK BEGINNING POST CARCINOGEN TREATMENT (STUDY DURATION: 32 WK), Species: RAT, Strain/Sex: F344/MALE, Target Tissue: Type of Lesion: THYROID: CARCINOMA, Dose [Carcinogen]: 0.1% IN DRINKING WATER FOR 2 WK, Promoter: NONE USED) 20%, 25%, -25%, not calculated; (Carcinogen: N-ETHYL-N-HYDROXYETHYLNITROSAMINE, 13147-25-6, 0.8% IN DIET FOR 36 WK BEGINNING 1 WK POST CARCINOGEN TREATMENT (STUDY DURATION: 40 WK), Species: RAT, Strain/Sex: WISTAR/MALE, Target Tissue: Type of Lesion: KIDNEY: MICROADENOMA, Dose [Carcinogen]: 0.1% IN DRINKING WATER FOR 3 WK, Promoter: NONE USED) 11/17 (65%), 12/16 (75%), -15%, not significant; (Carcinogen: N-ETHYL-N-HYDROXYETHYLNITROSAMINE, 13147-25-6, 0.8% IN DIET FOR 36 WK BEGINNING 1 WK POST CARCINOGEN TREATMENT (STUDY DURATION: 40 WK), Species: RAT, Strain/Sex: WISTAR/MALE, Target Tissue: Type of Lesion: KIDNEY: RENAL CELL TUMOR, Dose [Carcinogen]: 0.1% IN DRINKING WATER FOR 3 WK, Promoter: NONE USED) 14/17 (82%), 13/16 (81%), 1%, not significant; (Carcinogen: N-ETHYL-N-HYDROXYETHYLNITROSAMINE, 13147-25-6, 0.8% IN DIET FOR 36 WK BEGINNING 1 WK POST CARCINOGEN TREATMENT (STUDY DURATION: 40 WK), Species: RAT, Strain/Sex: WISTAR/MALE, Target Tissue: Type of Lesion: LIVER: HEPATOCELLULAR ADENOMA, Dose [Carcinogen]: 0.1% IN DRINKING WATER FOR 3 WK, Promoter: NONE USED) 10/17 (59%), 7/16 (44%), 25%, not significant. Besides, the “tumour outcome (control, treated, inhibition, significance)” value by setting is: (Carcinogen: N-ETHYL-N-HYDROXYETHYLNITROSAMINE, 13147-25-6, 0.8% IN DIET FOR 36 WK BEGINNING 1 WK POST CARCINOGEN TREATMENT (STUDY DURATION: 40 WK), Species: RAT, Strain/Sex: WISTAR/MALE, Target Tissue: Type of Lesion: LIVER: HEPATOCELLULAR CARCINOMA, Dose [Carcinogen]: 0.1% IN DRINKING WATER FOR 3 WK, Promoter: NONE USED) 7/17 (41%), 3/16 (19%), 54%, not significant; (Carcinogen: N-NITROSOBIS(2-OXOPROPYL)AMINE, 60599-38-4, 1.5% IN DIET FOR 16 WK BEGINNING 2 WK POST CARCINOGEN TREATMENT (STUDY DURATION: 20 WK), Species: HAMSTER, Strain/Sex: SYRIAN/FEMALE, Target Tissue: Type of Lesion: GALL BLADDER: ADENOMA, Dose [Carcinogen]: 70 MG/KG IN SALINE FOLLOWED 2 WK LATER BY SECOND TREATMENT) 9/18 (50%), 10/16 (62%), -24%, not calculated; (Carcinogen: N-NITROSOBIS(2-OXOPROPYL)AMINE, 60599-38-4, 1.5% IN DIET FOR 16 WK BEGINNING 2 WK POST CARCINOGEN TREATMENT (STUDY DURATION: 20 WK), Species: HAMSTER, Strain/Sex: SYRIAN/FEMALE, Target Tissue: Type of Lesion: GALL BLADDER: CARCINOMA, Dose [Carcinogen]: 70 MG/KG IN SALINE FOLLOWED 2 WK LATER BY SECOND TREATMENT) 1/18 (6%), 1/16 (6%), 0%, not significant; (Carcinogen: N-NITROSOBIS(2-OXOPROPYL)AMINE, 60599-38-4, 1.5% IN DIET FOR 16 WK BEGINNING 2 WK POST CARCINOGEN TREATMENT (STUDY DURATION: 20 WK), Species: HAMSTER, Strain/Sex: SYRIAN/FEMALE, Target Tissue: Type of Lesion: LIVER: CHOLANGIOCARCINOMA, Dose [Carcinogen]: 70 MG/KG IN SALINE FOLLOWED 2 WK LATER BY SECOND TREATMENT) 16/18 (89%), 12/16 (75%), 16%, not calculated; (Carcinogen: N-NITROSOBIS(2-OXOPROPYL)AMINE, 60599-38-4, 1.5% IN DIET FOR 16 WK BEGINNING 2 WK POST CARCINOGEN TREATMENT (STUDY DURATION: 20 WK), Species: HAMSTER, Strain/Sex: SYRIAN/FEMALE, Target Tissue: Type of Lesion: LIVER: NEOPLASTIC NODULE, Dose [Carcinogen]: 70 MG/KG IN SALINE FOLLOWED 2 WK LATER BY SECOND TREATMENT) 18/18 (100%), 16/16 (100%), 0%, not significant; (Carcinogen: N-NITROSOBIS(2-OXOPROPYL)AMINE, 60599-38-4, 1.5% IN DIET FOR 16 WK BEGINNING 2 WK POST CARCINOGEN TREATMENT (STUDY DURATION: 20 WK), Species: HAMSTER, Strain/Sex: SYRIAN/FEMALE, Target Tissue: Type of Lesion: PANCREAS: ADENOCARCINOMA, Dose [Carcinogen]: 70 MG/KG IN SALINE FOLLOWED 2 WK LATER BY SECOND TREATMENT) 14/18 (78%), 10/16 (63%), 19%, not calculated.
